Seven compounds from ChEMBL document CHEMBL3407450, “Design of new hybrid template by linking quinoline, triazole and dihydroquinoline pharmacophoric groups: A greener approach to novel polyazaheterocycles as cytotoxic agents” (Bioorg Med Chem Lett, 2015) can be followed below.

For one experiment, the system named is MCF7. Briefly: Cytotoxicity against human MCF7 cells assessed as cell viability after 48 hrs by MTT assay. It is filed as functional, cell-based. Particulars: MCF7, 48 h.
A further experiment concerns DU-145. Briefly: Cytotoxicity against human DU145 cells assessed as cell viability after 48 hrs by MTT assay. It is filed as functional, cell-based. Particulars: DU-145, 48 h.
For the next experiment, the system named is A549. In words: Cytotoxicity against human A549 cells assessed as cell viability after 48 hrs by MTT assay. The format is functional, cell-based. The following applies: A549, 48 h.
The next experiment has as its system HepG2. In words: Cytotoxicity against human HepG2 cells assessed as cell viability after 48 hrs by MTT assay. It is filed as functional, cell-based. The following applies: HepG2, 48 h.
Experiment [1] addresses 3',5'-cyclic-AMP phosphodiesterase 4D (Homo sapiens) (UniProt Q08499). In words: Inhibition of PDE4D (unknown origin) transfected into Sf9 cells at 30 uM by PDElight HTS cAMP phosphodiesterase assay.
Experiment [2] concerns the target 3',5'-cyclic-AMP phosphodiesterase 4B (Homo sapiens) (UniProt Q07343). In words: Inhibition of PDE4B (unknown origin) transfected into Sf9 cells at 30 uM by PDElight HTS cAMP phosphodiesterase assay.

Sequence of 3',5'-cyclic-AMP phosphodiesterase 4D (Homo sapiens) (Q08499 whole entry): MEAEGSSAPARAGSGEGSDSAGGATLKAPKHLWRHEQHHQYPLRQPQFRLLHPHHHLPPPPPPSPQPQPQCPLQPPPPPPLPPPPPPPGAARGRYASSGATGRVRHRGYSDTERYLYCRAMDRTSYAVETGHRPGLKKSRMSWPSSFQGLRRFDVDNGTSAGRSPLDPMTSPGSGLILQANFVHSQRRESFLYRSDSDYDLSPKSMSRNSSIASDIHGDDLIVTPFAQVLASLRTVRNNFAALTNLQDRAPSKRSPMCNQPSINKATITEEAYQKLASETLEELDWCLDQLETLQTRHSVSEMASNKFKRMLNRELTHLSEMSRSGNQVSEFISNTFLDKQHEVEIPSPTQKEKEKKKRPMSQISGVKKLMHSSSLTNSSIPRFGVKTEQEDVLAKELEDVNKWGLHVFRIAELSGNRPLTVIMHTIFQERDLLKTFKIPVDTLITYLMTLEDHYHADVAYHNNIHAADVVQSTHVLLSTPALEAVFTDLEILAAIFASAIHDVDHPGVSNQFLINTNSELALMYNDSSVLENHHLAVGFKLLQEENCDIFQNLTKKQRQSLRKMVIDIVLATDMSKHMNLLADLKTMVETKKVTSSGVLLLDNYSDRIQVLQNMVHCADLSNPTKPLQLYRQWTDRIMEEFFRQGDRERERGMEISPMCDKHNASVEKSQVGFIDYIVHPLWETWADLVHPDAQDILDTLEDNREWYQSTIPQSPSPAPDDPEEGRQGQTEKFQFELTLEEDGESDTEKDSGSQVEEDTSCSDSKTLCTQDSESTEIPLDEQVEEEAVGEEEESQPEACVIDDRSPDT
Sequence of 3',5'-cyclic-AMP phosphodiesterase 4B (Homo sapiens) (Q07343 whole entry): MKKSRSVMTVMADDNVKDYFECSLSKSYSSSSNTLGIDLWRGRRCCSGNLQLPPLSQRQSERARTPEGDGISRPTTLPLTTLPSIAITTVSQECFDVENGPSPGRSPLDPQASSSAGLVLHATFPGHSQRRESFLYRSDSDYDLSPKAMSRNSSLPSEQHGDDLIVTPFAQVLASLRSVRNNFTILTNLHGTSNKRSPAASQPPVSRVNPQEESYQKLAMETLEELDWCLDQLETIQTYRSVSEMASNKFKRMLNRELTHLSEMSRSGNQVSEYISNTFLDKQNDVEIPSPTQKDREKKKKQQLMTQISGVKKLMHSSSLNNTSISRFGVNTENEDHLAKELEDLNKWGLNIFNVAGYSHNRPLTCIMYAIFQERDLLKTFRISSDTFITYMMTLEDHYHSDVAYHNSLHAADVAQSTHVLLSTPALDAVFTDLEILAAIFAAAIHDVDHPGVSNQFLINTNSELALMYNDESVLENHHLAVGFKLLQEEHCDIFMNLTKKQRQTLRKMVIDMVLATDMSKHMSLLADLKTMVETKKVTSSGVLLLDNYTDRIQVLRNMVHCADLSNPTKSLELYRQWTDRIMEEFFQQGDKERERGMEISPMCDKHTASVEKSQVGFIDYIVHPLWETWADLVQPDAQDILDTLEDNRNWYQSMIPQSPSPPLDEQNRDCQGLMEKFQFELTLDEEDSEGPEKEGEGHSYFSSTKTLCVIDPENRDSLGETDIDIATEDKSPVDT

For the compound `CC1=CC(C)(C)N(Cc2cn(Cc3cc4cc(C)ccc4nc3Cl)nn2)c2ccccc21`, the IC50 turned out to be 30.6 µM in the experiment with MCF7, 31.3 µM in the experiment on DU-145, 29.4 µM in the experiment on A549 and 23 µM with HepG2.
In the same order, the values of `COc1ccc2nc(Cl)c(Cn3cc(CN4c5ccccc5C(C)=CC4(C)C)nn3)cc2c1` are 38.7 µM, 34 µM, 33.4 µM and 41.2 µM.
For the compound `COc1ccc2c(c1)C(C)=CC(C)(C)N2Cc1cn(Cc2cc3cc(OC)ccc3nc2Cl)nn1`, the IC50 was found to be 26.4 µM in the experiment on MCF7, 28.6 µM in the experiment on DU-145, 30.9 µM in the experiment with A549 and 27.2 µM in the experiment with HepG2.
In the same order, the values of `CC1=CC(C)(C)N(Cc2cn(Cc3cc4ccccc4nc3Cl)nn2)c2ccccc21` are 16.2 µM, 19.3 µM, 17.5 µM and 13.1 µM.
As to `COc1ccc2nc(Cl)c(Cn3cc(CN4c5ccc(C)cc5C(C)=CC4(C)C)nn3)cc2c1`, the inhibition in experiment [1] turned out to be 52%; in experiment [2], 88%. Further, the IC50 came to 14.3 µM in the experiment on MCF7, 19.8 µM in the experiment on DU-145, 15.5 µM in the experiment with A549 and 21.6 µM in the experiment on HepG2.
As for `COc1cccc2c1C(=O)c1c(O)c3c(c(O)c1C2=O)C[C@@](O)(C(=O)CO)C[C@@H]3O[C@H]1C[C@H](N)[C@H](O)[C@H](C)O1` [DOXORUBICIN], the IC50 is 0.8 µM in the experiment on MCF7, 0.5 µM with DU-145, 9.7 µM with A549 and 3.5 µM with HepG2.
On the same counts, the results for `CC1=CC(C)(C)N(Cc2cn(Cc3cc4ccc(C)cc4nc3Cl)nn2)c2ccccc21` are 10.8 µM, 27 µM, 11.1 µM and 26.2 µM.
